Experimental data published in paper PMC10046961, “High-Throughput Screening Assay for Detecting Drug-Induced Changes in Synchronized Neuronal Oscillations and Potential Seizure Risk Based on Ca^2+ Fluorescence Measurements in Human Induced Pluripotent Stem Cell (hiPSC)-Derived Neuronal 2D and 3D Cultures” (Cells, 2023).
Like-named read-outs stand apart in the source and are kept apart here.

Tests used:
[1] = system: hiPSC-derived neurons co-cultured with human primary astrocytes in 2D; test: Ca2+ transient oscillation assay (FDSS), 2D co-culture; assay type: cell-based; details: for activation at 0.37 µM / activation at 1.11 µM / activation at 3.33 µM / activation at 10 µM: Homo sapiens, 1 h, 60 min
Method in brief: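 hiPSC-derived excitatory neurons (CW50065, Quick-Neuron EX-SeV) co-cultured with human primary astrocytes at 4:1 (10,000:2500 cells per well). Cal-520-loaded cells in HBSS with 2 mM CaCl2 and 10 mM HEPES were pretreated with 0.04% DMSO.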

[2] = system: hiPSC-derived neurons co-cultured with human primary astrocytes in 3D; test: Ca2+ transient oscillation assay (FDSS), 3D spheroids; assay type: cell-based; details: 60 min
Method in brief: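 Fura-2 fluorescence was read twice for 20 min each: a baseline 10 min after 0.04% DMSO, and again 60 min after compound addition at nominal final concentration. The 3D co-cultures (1:1 hiPSC neurons from a donor and human astrocytes, 8000 each) matured 5 weeks in BrainPhys medium after a 1-week differentiation.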

[3] = cited from earlier work
[4] = humans; cited from earlier work
[5] = ref PharmaPendium, cited from earlier work
[6] = system: kainic-acid-induced seizures; details: cited from earlier work
[7] = read-out: Area under the curve - 2D Mean
[8] = read-out: Peak amplitude - 2D Mean
[9] = read-out: Peak-to-peak interval - 2D Mean

Cc1ccc(Nc2nccc(N(C)c3ccc4c(C)n(C)nc4c3)n2)cc1S(N)(=O)=O [Pazopanib]
effect on peak number / Ca2+ neuronal oscillations, in words ([1]; 2D format): significantly reduced peak number
activation at 0.37 µM [1, 7]: -1.8%
activation at 0.37 µM ([1]; read-out: Peak Number—2D Mean): -49%
activation at 0.37 µM [1, 8]: -15.8%
activation at 0.37 µM ([1]; read-out: Peak width - 2D Mean): -4.8%
activation at 0.37 µM [1, 9]: 14.6%
activation at 1.11 µM [1, 7]: 7.8%
activation at 1.11 µM ([1]; read-out: Peak Number—2D Mean): 4.4%
activation at 1.11 µM [1, 8]: -3.8%
activation at 1.11 µM ([1]; read-out: Peak width - 2D Mean): 12.6%
activation at 1.11 µM [1, 9]: -2.6%
activation at 3.33 µM [1, 7]: 38.8%
activation at 3.33 µM ([1]; read-out: Peak Number—2D Mean): 11.3%
activation at 3.33 µM [1, 8]: 11.2%
activation at 3.33 µM ([1]; read-out: Peak width - 2D Mean): 27.8%
activation at 3.33 µM [1, 9]: 0.5%
activation at 10 µM [1, 7]: 16.3%
activation at 10 µM ([1]; read-out: Peak Number—2D Mean): 10%
activation at 10 µM [1, 8]: 9.5%
activation at 10 µM ([1]; read-out: Peak width - 2D Mean): 3.7%
activation at 10 µM [1, 9]: 14.2%
Area under the curve - 3D Mean ([2]; 0.37 µM): 125.7 % change from baseline
Peak Number—3D Mean ([2]; 0.37 µM): 6.4 % change from baseline
Peak amplitude - 3D Mean ([2]; 0.37 µM): 101.6 % change from baseline
Peak width - 3D Mean ([2]; 0.37 µM): 9.7 % change from baseline
Peak-to-peak interval - 3D Mean ([2]; 0.37 µM): −2.0 % change from baseline
Area under the curve - 3D Mean ([2]; 1.11 µM): 127.9 % change from baseline
Peak Number—3D Mean ([2]; 1.11 µM): −4.2 % change from baseline
Peak amplitude - 3D Mean ([2]; 1.11 µM): 110.2 % change from baseline
Peak width - 3D Mean ([2]; 1.11 µM): 7.7 % change from baseline
Peak-to-peak interval - 3D Mean ([2]; 1.11 µM): 4.1 % change from baseline
Area under the curve - 3D Mean ([2]; 3.33 µM): 116.3 % change from baseline
Peak Number—3D Mean ([2]; 3.33 µM): 0.8 % change from baseline
Peak amplitude - 3D Mean ([2]; 3.33 µM): 107.5 % change from baseline
Peak width - 3D Mean ([2]; 3.33 µM): 4.1 % change from baseline
Peak-to-peak interval - 3D Mean ([2]; 3.33 µM): −3.0 % change from baseline
Area under the curve - 3D Mean ([2]; 10 µM): 117.4 % change from baseline
Peak Number—3D Mean ([2]; 10 µM): −2.0 % change from baseline
Peak amplitude - 3D Mean ([2]; 10 µM): 101.7 % change from baseline
Peak width - 3D Mean ([2]; 10 µM): 8.7 % change from baseline
Peak-to-peak interval - 3D Mean ([2]; 10 µM): 7.5 % change from baseline
seizure risk in humans [3]: does not have a seizure risk
crossing of the blood–brain barrier [4]: does not cross the blood–brain barrier
Free Cmax ([5]; Table 1, peak plasma concentration in men, free therapeutic Cmax): 600 to 1200 nM
Free Cmax ([5]; Table 2, highest plasma concentration in humans after the therapeutic dose): 600 to 1200 nM

CC(NC(C)(C)C)C(=O)c1cccc(Cl)c1 (centres unmarked) [Bupropion]
activation at 0.37 µM [1, 7]: 14.5%
activation at 0.37 µM ([1]; read-out: Peak Number—2D Mean): 12.7%
activation at 0.37 µM [1, 8]: 2.7%
activation at 0.37 µM ([1]; read-out: Peak width - 2D Mean): 12.8%
activation at 0.37 µM [1, 9]: -5.5%
activation at 1.11 µM [1, 7]: 26.6%
activation at 1.11 µM ([1]; read-out: Peak Number—2D Mean): 6.6%
activation at 1.11 µM [1, 8]: 5.4%
activation at 1.11 µM ([1]; read-out: Peak width - 2D Mean): 26.6%
activation at 1.11 µM [1, 9]: 3.4%
activation at 3.33 µM [1, 7]: 25.5%
activation at 3.33 µM ([1]; read-out: Peak Number—2D Mean): -12%
activation at 3.33 µM [1, 8]: 3.7%
activation at 3.33 µM ([1]; read-out: Peak width - 2D Mean): 29.2%
activation at 3.33 µM [1, 9]: 19.7%
activation at 10 µM [1, 7]: 39.3%
activation at 10 µM ([1]; read-out: Peak Number—2D Mean): 6%
activation at 10 µM [1, 8]: 4.7%
activation at 10 µM ([1]; read-out: Peak width - 2D Mean): 46.5%
activation at 10 µM [1, 9]: 41.8%
Area under the curve - 3D Mean ([2]; 0.37 µM): 137.5 % change from baseline
Peak Number—3D Mean ([2]; 0.37 µM): 1.3 % change from baseline
Peak amplitude - 3D Mean ([2]; 0.37 µM): 126.7 % change from baseline
Peak width - 3D Mean ([2]; 0.37 µM): 0.0 % change from baseline
Peak-to-peak interval - 3D Mean ([2]; 0.37 µM): 4.1 % change from baseline
Area under the curve - 3D Mean ([2]; 1.11 µM): 159.9 % change from baseline
Peak Number—3D Mean ([2]; 1.11 µM): −8.4 % change from baseline
Peak amplitude - 3D Mean ([2]; 1.11 µM): 134.2 % change from baseline
Peak width - 3D Mean ([2]; 1.11 µM): 9.4 % change from baseline
Peak-to-peak interval - 3D Mean ([2]; 1.11 µM): 15.3 % change from baseline
Area under the curve - 3D Mean ([2]; 3.33 µM): 154.1 % change from baseline
Peak Number—3D Mean ([2]; 3.33 µM): −2.2 % change from baseline
Peak amplitude - 3D Mean ([2]; 3.33 µM): 128.1 % change from baseline
Peak width - 3D Mean ([2]; 3.33 µM): 9.0 % change from baseline
Peak-to-peak interval - 3D Mean ([2]; 3.33 µM): 7.8 % change from baseline
Area under the curve - 3D Mean ([2]; 10 µM): 119.7 % change from baseline
Peak Number—3D Mean ([2]; 10 µM): 12.5 % change from baseline
Peak amplitude - 3D Mean ([2]; 10 µM): 118.0 % change from baseline
Peak width - 3D Mean ([2]; 10 µM): −1.4 % change from baseline
Peak-to-peak interval - 3D Mean ([2]; 10 µM): −3.5 % change from baseline
effect on kainic-acid-induced seizures in vitro [6]: attenuate
